Literature values, collected in the CATMoS acute toxicity set (Mansouri et al. 2021).
Values joined by “and” are separate entries in the source; they are usually repeats but may differ in a detail not shown here. Identical values can stand only once.

Test: rat acute oral toxicity
Conditions: in vivo

Compound | LD50
O=C1c2ccccc2-c2ccc3c4c(ccc1c24)-c1c(Br)ccc(Br)c1C3=O | 3570 mg/kg
ClC=C(Cl)c1ccccc1 | 4000 mg/kg
C=COC(=O)c1ccccc1 | 3250 mg/kg
Oc1ccc(-c2ccccc2)cc1CN1CCCC1 | 30 mg/kg
CCCC(=O)c1ccc2c(c1)N(CCCN1CCN(C)CC1)c1ccccc1S2 | 413 mg/kg
C=CC(=O)NCNC(=O)C=C | 390 mg/kg
CCOP(=S)(OCC)SC(=CC(=O)OC)C(=O)OC | 80 mg/kg
CC1(C)[C@H]2CC[C@](C)(O)[C@@H]1C2 | 2050 mg/kg
CC(C)(C)NCCO | 1620 mg/kg
CNC(=O)ON=C1CSCCS1 | 15 mg/kg
O=[N+]([O-])c1ccc(OP(=O)(CCl)c2ccccc2)cc1 (stereo not given) | 203 mg/kg
CC(C)C12CCC(C)(CC1)O2 | 3100 mg/kg
C=CC(=O)NCOCCCC | 1030 mg/kg
CC(C)C(C(=O)OC(C#N)c1ccc(Oc2ccccc2)cc1)c1ccc(Cl)cc1 (stereo not given) | 451 mg/kg
CNC(=O)ON=C1SCSC1C (stereo not given) | 0.88 mg/kg
COc1ccc(CCNC[C@H](O)c2ccc(O)cc2)cc1OC | 9370 mg/kg
COS(C)(=O)=O | 225 mg/kg
COc1ccc(CC2NCCc3cc(OC)c(OC)cc32)cc1OC (stereo not given) | 700 mg/kg
O=C1CCCCCCCC(=O)OCCO1 | 9200 mg/kg
CNNC | 100 mg/kg and 257 mg/kg
CN(C)S(=O)(=O)CCNC(=O)N(CCCl)N=O | 39 mg/kg
Cc1cccc(O)c1 | 242 mg/kg
Clc1ccc(C(OCCN2CCCCC2)c2ccccc2)cc1 (stereo not given) | 1990 mg/kg
CC(NCCO)c1ccccc1 (stereo not given) | 2830 mg/kg
C=CCC1(C(C)SCCCC)C(=O)N=C(O)NC1=O (stereo not given) | 639 mg/kg

Compound | LD50
CC[C@@H]1C(=O)OC[C@@H]1Cc1cncn1C | 911 mg/kg and 402 mg/kg
CCC1=CSC(S)N1 (stereo not given) | 35 mg/kg
CC1=CCC2CC1C2(C)C (stereo not given) | 3700 mg/kg
CCOC(=O)c1ccc(N)cc1 | 3040 mg/kg
CNCCCC1c2ccccc2CN(C)c2ccccc21 (stereo not given) | 331 mg/kg
CN(C)N=Nc1cccnc1 | 160 mg/kg
CCOc1ccc(C=O)cc1 | 2100 mg/kg
CC1N(c2ccccc2)C(=O)c2ccccc2N1C(=O)CN1CCOCC1 (stereo not given) | 1710 mg/kg
CCOC(=O)CCC(=O)OCC | 8530 mg/kg
CCS(=O)Cc1ccccc1OC(=O)NC (stereo not given) | 150 mg/kg
CCCCCN(N=O)C(N)=O | 560 mg/kg
ClC1=C(Cl)C2(Cl)C3C4OC4C(Cl)C3C1(Cl)C2(Cl)Cl (stereo not given) | 15 mg/kg
CC(C)(C#N)/N=N/C(C)(C)C#N | 100 mg/kg
c1ccc2c(c1)ncc1ncsc12 | 350 mg/kg and 290 mg/kg
C1CCC2OCCOCCOCCOC3CCCCC3OCCOCCOCCOC2C1 (stereo not given) | 75 mg/kg
CC1(C)C2CCC(C=O)C1C2 (stereo not given) | 2300 mg/kg
CCC(C)(CC)c1cc(N)on1 | 144 mg/kg
CC1CCC(=O)O1 (stereo not given) | 8800 mg/kg
N=C(N)SCc1ccc([N+](=O)[O-])cc1 | 300 mg/kg
COc1c(Cl)c(Cl)c(OC)c2[nH]c(C(F)(F)F)nc12 | 100 mg/kg
Cc1sc2ccccc2c1CC1=NCCN1 | 74 mg/kg
Nc1nc2cccc(Cl)c2o1 | 410 mg/kg
CCOC(=O)c1ccc(OC(=O)CCCCCNC(=N)N)cc1 | 6480 mg/kg
CCCN(COC(C)=O)N=O | 1000 mg/kg
CCOC(=O)C=[N+]=[N-] | 400 mg/kg

Compound | LD50
CCc1ccc(C)[n+](C(C)CCC(C)(C)CC(C)(C)C)c1 (stereo not given) | 540 mg/kg
Cc1cc(C(=O)NNC(C)Cc2ccccc2)no1 (stereo not given) | 89 mg/kg
OB(O)c1ccccc1 | 740 mg/kg
CC1(C)CC(=O)C(N)C(C)(C)N1 (stereo not given) | 920 mg/kg
NC(Cc1ccc(N(CCCl)CCCl)cc1)C(=O)O (stereo not given) | 52 mg/kg and 105 mg/kg
CN(C)CCn1c2ccccc2c(=O)c2c([N+](=O)[O-])cccc21 | 41 mg/kg
CNCc1cccc2ccccc12 | 50 mg/kg
CCOC(=O)COc1ccc2c(C)c(CCN(CC)CC)c(=O)oc2c1 | 8000 mg/kg
O=C(O)CN(CCO)CCN(CC(=O)O)CC(=O)O | 10000 mg/kg
C=C1CC[C@H](O)C/C1=C/C=C1\CCC[C@]2(C)[C@@H]([C@H](C)/C=C/[C@H](C)C(C)C)CC[C@@H]12 | 10 mg/kg
CC1OCC(CN(C)C)O1 (stereo not given) | 575 mg/kg
O=C(COc1ccc(Cl)cc1Cl)OCC=CCCl | 547 mg/kg
CCOC(=O)C1(c2ccccc2)CCN(CCOCCO)CC1 | 230 mg/kg
C=C(C)C#N | 120 mg/kg
CN1CC(CC#N)CC2c3cccc4[nH]c(Cl)c(c34)CC21 (stereo not given) | 290 mg/kg
COc1ccc2c(c1)Sc1ccccc1N2C1CCCN(C)C1 (stereo not given) | 750 mg/kg
COCCl | 500 mg/kg
CCC1(CCl)COC1 | 570 mg/kg
CC(=O)Nc1cccc(N=Nc2ccc(N(C)C)cc2)c1 | 5910 mg/kg
O=C(Cl)c1cc(Cl)cc(Cl)c1 | 794 mg/kg
CC(=O)C(Cl)C(=O)OC(C)c1ccccc1 (stereo not given) | 880 mg/kg
Nc1c(Cl)cc(C(=O)NC2CC2)cc1Cl | 170 mg/kg
NC1CCCCC1 | 720 mg/kg and 1650 mg/kg
CC(=O)c1cc2cccc(OCC(O)CNC(C)C)c2o1 (stereo not given) | 922 mg/kg
Cc1ccc(-c2nc3n(c2C=NNC(=O)CN(C)C)CCS3)cc1 | 800 mg/kg
